US20250163013A1, “TREATMENT OF GENITOURINARY SYNDROME OF MENOPAUSE” (THE REGENTS OF THE UNIVERSITY OF COLORADO, a body corporate, priority 2022, published 2025)
Entries after “also recorded” stand apart in the source; their conditions may differ. One block for each compound: values may come before it.

How the values were obtained:
estrogen receptor = assay: Screen for agonist or antagonist effects on steroid hormone receptor-mediated gene expression; assay type: cell-based; conditions: cell lines with endogenous genes or stably integrated reporter genes
Experimental: A screen for the agonist or antagonist effects of a set of commercially available flavonoids was done by assessing their ability to induce or inhibit steroid hormone receptor-mediated gene expression. Cell lines were used in which the activity of endogenous genes or stably integrated reporter genes provided a facile method to quantify the effect of the flavonoids. The compound library was tested for their effects on gene expression mediated by the estrogen receptor, androgen receptor, progesterone receptor, and glucocorticoid receptor. […] Compound 2 differs from compound 1 by the addition of a hydroxyl group at carbon 3 of the flavone scaffold. We reasoned that other substitutions at position 3 could have estrogenic activity. Two novel compounds were tested: compound 3 (6-hydroxy-2-(4-hydroxyphenyl)-3-methyl-4H-chromen-4-one) and compound 4 (3-fluoro-6-hydroxy-2-(4-hydroxyphenyl)-4H-chromen-4-one) of Table 1, which have a methyl or fluoro moiety, respectively, at position 3.

[1] = tested on: Estrogen Response Element (ERE)-luciferase reporter gene; assay: Cell culture-reporter gene assay of estrogenic activity (T47D ERE-luciferase); assay type: cell-based; conditions: for EC50: Homo sapiens, T47D breast cancer cell line, ERE-luciferase, treated 20 hours, FIG. 4; for estrogenic activity (luciferase) in words: compared to estradiol 1 nM
Experimental: Estrogenic activity was compared to an optimal dose of estradiol (1 nM). Results from cell culture-reporter gene assay was performed in which a T47D breast cancer cell line with a stably integrated Estrogen Response Element (ERE)-luciferase reporter gene was treated for 20 hours with the indicated doses of test compounds (FIG. 4). Luciferase activity was compared to an optimal dose of estradiol (1 nM).

ovariectomized rat [2] = assay: Depth of vaginal epithelium in ovariectomized rat model of GSM; assay type: in vivo
Experimental: Independent measurement from mid-vagina (sections 3-4) and vagina near the cervix (sections 6-7) are shown. Twenty-five separate measurements were performed on sections 3-4 and also on sections 6-7 for each animal. There were 6 animals per treatment group, therefore each bar represents the mean of 150 measurements with the vertical line indicating one standard deviation.
(§1) Compound 4 of Table 1 was tested in the ovariectomized rat, a model of GSM, (Yousefzadeh N, et al., Ovariectomized rat model of osteoporosis: a practical guide. EXCLI J. 2020 Jan. 10; 19:89-107. doi: 10.17179/excli2019-1990). […] To determine the depth of the epithelium, high quality 100x images were taken of the two regions and thickness of the epithelium measured at 25 distinct sites at each level for each animal, then averaged. […] P values were determined by student's T-test. […]

ovariectomized rat [3] = assay: Ki67 immunohistochemistry of vaginal sections, ovariectomized rat; assay type: in vivo; conditions: high compound 4, 1.0 mg/suppository daily for 14 days
Experimental: Compound 4 of Table 1 was tested in the ovariectomized rat, a model of GSM, (Yousefzadeh N, et al., Ovariectomized rat model of osteoporosis: a practical guide. EXCLI J. 2020 Jan. 10; 19:89-107. doi: 10.17179/excli2019-1990). Six rats were tested in each of five treatment groups: rats treated with low or high concentrations of control (vehicle only); rats treated with low (0.2 mg/suppository or high (1.0 mg/suppository levels of compound 4 (abbreviated as “3F” in these figures); and rats treated with estradiol 0.1 microgram/suppository. Suppositories were administered intravaginally daily for 14 days. There were two sets of vehicle controls, corresponding to the level of excipients used in the in the low and high compound 4 treatment conditions. The estradiol treatment condition had excipients equivalent to the high control and high compound 4 treatment conditions. […] To determine the depth of the epithelium, high quality 100x images were taken of the two regions and thickness of the epithelium measured at 25 distinct sites at each level for each animal, then averaged. […] P values were determined by student's T-test. […]
Ki-67 is a protein expressed in G1, S, G2, and M phase and has been established as a marker of cellular proliferation. […] Approximately 800 cells were assessed on each slide. […] P values were determined by student's T-test.

ovariectomized rat [4] = assay: Vaginal mucin 5B immunohistochemistry, semi-quantitative score, ovariectomized rat; assay type: in vivo; conditions: intravaginal suppository daily for 14 days
Experimental: as §1
To investigate compound 4-mediated production of mucins in more detail, we investigated the production and presence of mucin 5B in the rat vagina. […] A semi-quantitative scoring system for the mucin 5B immunohistochemistry was designed with values between 0 to 2 in increments of 0.5 for the quantity of mucin 5B and the depth of the epithelium positive for mucin 5B, and then assessed at the levels 1, 2&3, 4&5, and 6&7. The presence of mucin 5B in the vaginal lumen was also assessed, then all values were summed for each animal. […] P values were determined by student's T-tests.

ovariectomized rat [5] = assay: Behavior, appearance, weight and necropsy findings of treated rats; assay type: in vivo; conditions: intravaginal suppository daily for 14 days
Experimental: (§2) Compound 4 of Table 1 was tested in the ovariectomized rat, a model of GSM, (Yousefzadeh N, et al., Ovariectomized rat model of osteoporosis: a practical guide. EXCLI J. 2020 Jan. 10; 19:89-107. doi: 10.17179/excli2019-1990). Six rats were tested in each of five treatment groups: rats treated with low or high concentrations of control (vehicle only); rats treated with low (0.2 mg/suppository or high (1.0 mg/suppository levels of compound 4 (abbreviated as “3F” in these figures); and rats treated with estradiol 0.1 microgram/suppository. Suppositories were administered intravaginally daily for 14 days. There were two sets of vehicle controls, corresponding to the level of excipients used in the in the low and high compound 4 treatment conditions. The estradiol treatment condition had excipients equivalent to the high control and high compound 4 treatment conditions. The individuals performing the drug treatment of the animals, their gross evaluations, sacrifice and dissection were blinded to the treatment that each group received. […] J Steroid Biochem Mol Biol. 2008 March; 109(1-2):67-80 doi: 10.1016/j.jsbmb.2007.09.023). […] To determine the depth of the epithelium, high quality 100x images were taken of the two regions and thickness of the epithelium measured at 25 distinct sites at each level for each animal, then averaged. […] P values were determined by student's T-test. […]

[6] = Level in systemic circulation after suppository regimen; assay type: in vivo; conditions: female, rat, other: intravaginal suppository, one day after a two-week, daily suppository administration regimen, read-out: level in the systemic circulation (undetectable, LOD)
Experimental: as §2

ovariectomized rat [7] = assay: Thickness of uterine endometrium, myometrium and bladder urothelium, ovariectomized rat; assay type: in vivo; conditions: estradiol 0.1 microgram/suppository daily for 14 days
Experimental: as §1
To ascertain whether compound 4 has an effect on the epithelium of anatomically neighboring tissues, the thickness of the epithelium was assessed in the uterus (a known target tissue of physiological levels of estradiol) and bladder (not an estrogen target tissue). The rats from the five treatment groups in the ovariectomized rat model of GSM described in Example 2 were evaluated for the effects of compound 4 on growth of uterus and bladder. […] The endometrium, myometrium, and urothelium thickness of each animal (n=6) were measured in 20 locations and averaged. […] P values were determined by student T-test.

ovariectomized rat [8] = assay: Ki67 immunohistochemistry of uterine sections, ovariectomized rat; assay type: in vivo; conditions: estradiol 0.1 microgram/suppository daily for 14 days
Experimental: as §1
Ki67 IHC was performed on a uterine section from animals in the control, the high level of compound 4 (abbreviated as “3F” in these figures), and estradiol groups. […] Approximately 800 cells were assessed for each animal within a group, then averaged to obtain the group mean. […] P values were determined by student T-test.

SMILES: Cc1c(-c2ccc(O)cc2)oc2ccc(O)cc2c1=O [compound 3, 6-hydroxy-2-(4-hydroxyphenyl)-3-methyl-4H-chromen-4-one]
potency compared to compound 2 (fold less potent) ([1]; T47D ERE-luciferase, 20 hours): about 10 fold
estrogenic activity (luciferase) in words ([1]; T47D ERE-luciferase, 20 hours): at very high doses appears to have superagonist activity

SMILES: C[C@]12CC[C@@H]3c4ccc(O)cc4CC[C@H]3[C@@H]1CC[C@@H]2O [estradiol]
endometrium, myometrium, and urothelium thickness vs control (ovariectomized rat [7]): None of the pairs exhibited a significant difference
mean percent Ki67 positive uterine cells vs control (ovariectomized rat [8]): None of the pairs exhibited a significant difference

The next lines start with results.

estrogen agonist effect on estrogen receptor-mediated gene expression (estrogen receptor): estrogen agonist
SMILES: O=c1cc(-c2ccc(O)cc2)oc2ccc(O)cc12 [compound 1, 6-hydroxy-2-(4-hydroxyphenyl)-4H-chromen-4-one]

EC50 [1]: 44 nM
SMILES: O=c1c(O)c(-c2ccc(O)cc2)oc2ccc(O)cc12 [compound 2, 3,6-dihydroxy-2-(4-hydroxyphenyl)-4H-chromen-4-one]
estrogen agonist effect on estrogen receptor-mediated gene expression (estrogen receptor): superior potency as an estrogen receptor agonist compared to compound 1

EC50 [1]: 24 nM
concentration at 1 day [6]: < 0.33 ng/mL
SMILES: O=c1c(F)c(-c2ccc(O)cc2)oc2ccc(O)cc12 [compound 4, 3-fluoro-6-hydroxy-2-(4-hydroxyphenyl)-4H-chromen-4-one]
estrogenic activity (luciferase) in words ([1]; T47D ERE-luciferase, 20 hours): robust estrogenic activity and superior potency compared to compound 2
effect on vaginal epithelium structure, in words (ovariectomized rat [2]; 0.2 and 1.0 mg/suppository intravaginally daily for 14 days): dose dependent; also recorded: can restore the structure of the degenerate vaginal epithelium to the same level as estradiol
mean epithelial depth, p value vs corresponding control (ovariectomized rat [2]; low compound 4, 0.2 mg/suppository intravaginally daily for 14 days, both regions, borderline significant): ≈ 0.05
percent Ki67 positive cells in vaginal basal and parabasal layers vs control (ovariectomized rat [3]): no statistical difference between the groups
vaginal production of mucins, in words (ovariectomized rat [4]): stimulates the vaginal production of mucins; also recorded: lower dose of compound 4 treatment results in somewhat higher mucin production than higher dose
effect on animal behavior, appearance, weight, necropsy findings (ovariectomized rat [5]): does not affect animal behavior, appearance, weight, or necropsy findings
